Target: T1, PERK (Homo sapiens, UniProt Q9NZJ5)
T1 sequence (Q9NZJ5 30-1116): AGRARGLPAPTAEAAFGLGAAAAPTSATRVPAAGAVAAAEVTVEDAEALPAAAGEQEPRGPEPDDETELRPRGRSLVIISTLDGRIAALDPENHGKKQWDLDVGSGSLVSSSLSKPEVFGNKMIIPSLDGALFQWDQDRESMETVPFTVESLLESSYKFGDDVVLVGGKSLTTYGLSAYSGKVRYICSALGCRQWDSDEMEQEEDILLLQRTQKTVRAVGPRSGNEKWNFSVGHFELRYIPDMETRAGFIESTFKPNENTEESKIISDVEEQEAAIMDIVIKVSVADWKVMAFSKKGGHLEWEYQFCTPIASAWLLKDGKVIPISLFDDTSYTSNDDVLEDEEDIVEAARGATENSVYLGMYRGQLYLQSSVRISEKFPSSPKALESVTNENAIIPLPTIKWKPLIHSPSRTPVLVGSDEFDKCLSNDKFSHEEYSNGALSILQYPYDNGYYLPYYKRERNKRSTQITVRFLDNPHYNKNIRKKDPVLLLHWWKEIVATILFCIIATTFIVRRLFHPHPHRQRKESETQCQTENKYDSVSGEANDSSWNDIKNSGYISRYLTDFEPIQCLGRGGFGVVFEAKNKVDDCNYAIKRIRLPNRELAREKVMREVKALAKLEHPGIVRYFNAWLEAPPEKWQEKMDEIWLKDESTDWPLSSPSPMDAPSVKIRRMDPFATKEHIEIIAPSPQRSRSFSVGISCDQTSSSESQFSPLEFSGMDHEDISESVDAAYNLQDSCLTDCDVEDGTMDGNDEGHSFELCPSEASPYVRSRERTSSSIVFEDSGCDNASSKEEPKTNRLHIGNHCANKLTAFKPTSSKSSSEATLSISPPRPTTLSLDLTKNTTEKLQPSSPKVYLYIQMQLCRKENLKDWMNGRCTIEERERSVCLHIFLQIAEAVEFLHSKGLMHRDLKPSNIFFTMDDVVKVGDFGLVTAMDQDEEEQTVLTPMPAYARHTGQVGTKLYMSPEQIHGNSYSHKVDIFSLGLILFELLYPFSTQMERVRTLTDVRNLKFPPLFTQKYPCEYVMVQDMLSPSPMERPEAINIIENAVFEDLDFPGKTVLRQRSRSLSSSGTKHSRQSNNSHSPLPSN
Experiment: PERK enzyme assay (HTRF)
Format: biochemical
Details: 500 μM ATP; at least one experimental run; read-out: PERK Enzyme (500 μM ATP) IC50
Method in brief: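 GST-PERK (0.75 nM final) pre-incubated 30–60 min with compound (≤1% DMSO) in HEPES pH 7.5/CHAPS/MgCl2/DTT, then 500 μM ATP and 40 nM biotin-eIF2α added for 60 min. EDTA quench; HTRF detection of phospho-eIF2α (Eu anti-rabbit/streptavidin-APC) read after 2 h; IC50 from concentration series.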

Row | IC50 [nM] | Compound
1 | 462 | CCN1C(=O)N(c2ccc(-c3cn(C)c4ncnc(N)c34)c(F)c2)CC1c1cccc(C)c1 (stereo not shown) [Example 36, 1-(4-(4-amino-7-methyl-7H-pyrrolo[2,3-d]pyrimidin-5-yl)-3-fluorophenyl)-3-ethyl-4-(m-tolyl)imidazolidin-2-one]

Same assay, conditions: PERK Enzyme (500 μM ATP) IC50; at least one experimental run; read-out: PERK Activity

Row | Compound | IC50 [nM]
2 | Cc1cccc(C2CN(c3ccc(-c4cn(C)c5ncnc(N)c45)c(F)c3)C(=O)N2C)c1 (stereo not shown) [Example 39, 1-(4-(4-amino-7-methyl-7H-pyrrolo[2,3-d]pyrimidin-5-yl)-3-fluorophenyl)-3-methyl-4-(m-tolyl)imidazolidin-2-one] | 100 to 1000
3 | CN1C(=O)N(c2ccc(-c3cn(C)c4ncnc(N)c34)cn2)CC1c1cc(F)ccc1F (stereo not shown) [Example 40, 1-(5-(4-amino-7-methyl-7H-pyrrolo[2,3-d]pyrimidin-5-yl)pyridin-2-yl)-4-(2,5-difluorophenyl)-3-methylimidazolidin-2-one] | 100 to 1000
4 | CCN1C(=O)N(c2ccc(-c3cn(C)c4ncnc(N)c34)cn2)CC1c1cc(F)ccc1F (stereo not shown) [Example 41, 1-(5-(4-amino-7-methyl-7H-pyrrolo[2,3-d]pyrimidin-5-yl)pyridin-2-yl)-4-(2,5-difluorophenyl)-3-ethylimidazolidin-2-one] | 100 to 1000
5 | CCN1C(=O)N(c2ccc(-c3csc4ncnc(N)c34)c(F)c2)CC1c1cc(F)ccc1F (stereo not shown) [Example 42, 1-(4-(4-aminothieno[2,3-d]pyrimidin-5-yl)-3-fluorophenyl)-4-(2,5-difluorophenyl)-3-ethylimidazolidin-2-one] | 100 to 1000
6 | CCN1C(=O)N(c2ccc(-c3cn(C)c4ncnc(N)c34)c(F)c2)CC1c1cc(C2CC2)ccc1F (stereo not shown) [Example 48, 1-(4-(4-amino-7-methyl-7H-pyrrolo[2,3-d]pyrimidin-5-yl)-3-fluorophenyl)-4-(5-cyclopropyl-2-fluorophenyl)-3-ethylimidazolidin-2-one] | 100 to 1000
7 | CN1C(=O)N(c2ccc(-c3cn(C)c4ncnc(N)c34)c(F)c2)CC1c1cc(C2CC2)ccc1F (stereo not shown) [Example 49, 1-(4-(4-amino-7-methyl-7H-pyrrolo[2,3-d]pyrimidin-5-yl)-3-fluorophenyl)-4-(5-cyclopropyl-2-fluorophenyl)-3-methylimidazolidin-2-one] | 100 to 1000
8 | CCN1C(=O)N(c2ccc(-c3cn(C)c4ncnc(N)c34)c(F)c2)CC1c1cccc(C)n1 (stereo not shown) [Example 50, 1-(4-(4-amino-7-methyl-7H-pyrrolo[2,3-d]pyrimidin-5-yl)-3-fluorophenyl)-3-ethyl-4-(6-methylpyridin-2-yl)imidazolidin-2-one] | 100 to 1000
9 | CN1C(=O)N(c2ccc(-c3cn(C)c4ncnc(N)c34)c(F)c2)CC1c1cc(Cl)ccc1F (stereo not shown) [Example 53, 1-(4-(4-amino-7-methyl-7H-pyrrolo[2,3-d]pyrimidin-5-yl)-3-fluorophenyl)-4-(5-chloro-2-fluorophenyl)-3-methylimidazolidin-2-one] | 100 to 1000
10 | CCN1C(=O)N(c2ccc(-c3cn(C)c4ncnc(N)c34)c(F)c2)CC1c1cc(F)cc(F)c1F (stereo not shown) [Example 55, 1-(4-(4-amino-7-methyl-7H-pyrrolo[2,3-d]pyrimidin-5-yl)-3-fluorophenyl)-3-ethyl-4-(2,3,5-trifluorophenyl)imidazolidin-2-one] | 100 to 1000
11 | CN1C(=O)N(c2ccc(-c3cn(C)c4ncnc(N)c34)c(F)c2)CC1c1cc(F)cc(F)c1F (stereo not shown) [Example 56, 1-(4-(4-amino-7-methyl-7H-pyrrolo[2,3-d]pyrimidin-5-yl)-3-fluorophenyl)-3-methyl-4-(2,3,5-trifluorophenyl)imidazolidin-2-one] | 100 to 1000
12 | COc1ccc(C2CN(c3ccc(-c4cn(C)c5nc(C)nc(N)c45)c(F)c3)C(=O)N2C)cc1 (stereo not shown) [Example 64, 1-(4-(4-amino-2,7-dimethyl-7H-pyrrolo[2,3-d]pyrimidin-5-yl)-3-fluorophenyl)-4-(4-methoxyphenyl)-3-methylimidazolidin-2-one] | 100 to 1000
13 | Cc1nc(N)c2c(-c3ccc(N4CC(c5ccc(F)cc5F)N(C)C4=O)cc3F)cn(C)c2n1 (stereo not shown) [Example 65, 1-(4-(4-amino-2,7-dimethyl-7H-pyrrolo[2,3-d]pyrimidin-5-yl)-3-fluorophenyl)-4-(2,4-difluorophenyl)-3-methylimidazolidin-2-one] | 100 to 1000

The remaining lines, values ahead:

Row | IC50 [nM] | Compound
14 | 100 to 1000 | CCN1C(=O)N(c2ccc(-c3cn(C)c4ncnc(N)c34)c(F)c2)CC1c1cc(F)cc(Cl)c1 (stereo not shown) [Example 27, 1-(4-(4-amino-7-methyl-7H-pyrrolo[2,3-d]pyrimidin-5-yl)-3-fluorophenyl)-4-(3-chloro-5-fluorophenyl)-3-ethylimidazolidin-2-one]
15 | 100 to 1000 | Cn1cc(-c2ccc(N3CC(C4CCCC4)CC3=O)cc2F)c2c(N)ncnc21 (stereo not shown) [Example 28, 1-(4-(4-amino-7-methyl-7H-pyrrolo[2,3-d]pyrimidin-5-yl)-3-fluorophenyl)-4-cyclopentylpyrrolidin-2-one]
16 | 100 to 1000 | Cn1cc(-c2ccc(N3CC(c4cc(F)cc(F)c4)CC3=O)cc2)c2c(N)ncnc21 (stereo not shown) [Example 29, 1-(4-(4-amino-7-methyl-7H-pyrrolo[2,3-d]pyrimidin-5-yl)phenyl)-4-(3,5-difluorophenyl)pyrrolidin-2-one]
17 | < 100 | Cc1cc(C)cc(C2CC(=O)N(c3ccc(-c4cn(C)c5ncnc(N)c45)c(F)c3)C2)c1 (stereo not shown) [Example 30, 1-(4-(4-amino-7-methyl-7H-pyrrolo[2,3-d]pyrimidin-5-yl)-3-fluorophenyl)-4-(3,5-dimethylphenyl)pyrrolidin-2-one]
18 | 100 to 1000 | Cn1cc(-c2ccc(N3CC(c4cc(F)ccc4F)CC3=O)cc2F)c2c(N)ncnc21 (stereo not shown) [Example 31, 1-(4-(4-amino-7-methyl-7H-pyrrolo[2,3-d]pyrimidin-5-yl)-3-fluorophenyl)-4-(2,5-difluorophenyl)pyrrolidin-2-one]
19 | 100 to 1000 | Cn1cc(-c2ccc(N3CC(c4cc(F)cc(F)c4)CC3=O)nc2)c2c(N)ncnc21 (stereo not shown) [Example 32, 1-(5-(4-amino-7-methyl-7H-pyrrolo[2,3-d]pyrimidin-5-yl)pyridin-2-yl)-4-(3,5-difluorophenyl)pyrrolidin-2-one]
20 | 100 to 1000 | Cc1cccc(C2CC(=O)N(c3ccc(-c4cn(C)c5ncnc(N)c45)c(F)c3)C2)n1 (stereo not shown) [Example 33, 1-(4-(4-amino-7-methyl-7H-pyrrolo[2,3-d]pyrimidin-5-yl)-3-fluorophenyl)-4-(6-methylpyridin-2-yl)pyrrolidin-2-one]
21 | 100 to 1000 | Cn1cc(-c2ccc(N3CC(c4ccc(F)cc4F)CC3=O)cc2F)c2c(N)ncnc21 (stereo not shown) [Example 34, 1-(4-(4-amino-7-methyl-7H-pyrrolo[2,3-d]pyrimidin-5-yl)-3-fluorophenyl)-4-(2,4-difluorophenyl)pyrrolidin-2-one]
22 | 100 to 1000 | Cn1cc(-c2ccc(N3CC(c4cccc(Cl)c4F)CC3=O)cc2F)c2c(N)ncnc21 (stereo not shown) [Example 35, 1-(4-(4-amino-7-methyl-7H-pyrrolo[2,3-d]pyrimidin-5-yl)-3-fluorophenyl)-4-(3-chloro-2-fluorophenyl)pyrrolidin-2-one]
23 | 100 to 1000 | CCN1C(=O)N(c2ccc(-c3cn(C)c4ncnc(N)c34)c(F)c2)CC1c1cccc(C)c1 (stereo not shown) [Example 36, 1-(4-(4-amino-7-methyl-7H-pyrrolo[2,3-d]pyrimidin-5-yl)-3-fluorophenyl)-3-ethyl-4-(m-tolyl)imidazolidin-2-one]
24 | < 100 | CC(C)n1cc(-c2ccc(N3CC(c4cc(F)ccc4F)N(C)C3=O)cc2F)c2c(N)ncnc21 (stereo not shown) [Example 43, 1-(4-(4-amino-7-isopropyl-7H-pyrrolo[2,3-d]pyrimidin-5-yl)-3-fluorophenyl)-4-(2,5-difluorophenyl)-3-methylimidazolidin-2-one]
25 | < 100 | CCN1C(=O)N(c2ccc(-c3cn(C)c4ncnc(N)c34)c(F)c2)CC1c1ccc(F)cc1 (stereo not shown) [Example 57]
26 | < 100 | CN1C(=O)N(c2ccc(-c3cn(C)c4ncnc(N)c34)c(F)c2)CC1C1CCCCC1 (stereo not shown) [Example 58, 1-(4-(4-amino-7-methyl-7H-pyrrolo[2,3-d]pyrimidin-5-yl)-3-fluorophenyl)-4-cyclohexyl-3-methylimidazolidin-2-one]
27 | < 100 | CN1C(=O)N(c2ccc(-c3cn(C)c4ncnc(N)c34)c(F)c2)CC1c1cccnc1 (stereo not shown) [Example 60, 1-(4-(4-amino-7-methyl-7H-pyrrolo[2,3-d]pyrimidin-5-yl)-3-fluorophenyl)-3-methyl-4-(pyridin-3-yl)imidazolidin-2-one]
28 | < 100 | CN1C(=O)N(c2ccc(-c3cn(C)c4ncnc(N)c34)c(F)c2)CC1c1ccc(F)cc1 (stereo not shown) [Example 68, 1-(4-(4-amino-7-methyl-7H-pyrrolo[2,3-d]pyrimidin-5-yl)-3-fluorophenyl)-4-(4-fluorophenyl)-3-methylimidazolidin-2-one]

Reference: patent US20180237441A1, “Chemical Compounds” (GlaxoSmithKline Intellectual Property (No.2) Limited, priority 2015, published 2018)
